Test results as given in PubChem BioAssay AID248 (DTP/NCI, 2004).
Several values for one entry are separate records, joined by “and”; a condition that tells them apart may be missing. Identical values can stand only once. Toxic doses and inconclusive results are not listed.

Test system: L1210 leukemia ip in BDF1 mice, survival T/C
Experiment: NCI In Vivo Anticancer Drug Screen. Data for tumor model L1210 Leukemia (intraperitoneal) in B6D2F1 (BDF1) mice
Details: endpoint: mean survival time, higher = longer survival
Outline: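 Mice bearing the transplanted tumor received compound or vehicle. Survival of the treated group was divided by that of the vehicle-treated control group to give the ratio.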

[1] = dose: 100.0 mg/kg/injection, schedule: Q04DX002 (ip), vehicle: saline
[2] = dose: 200.0 mg/kg/injection, schedule: Q04DX002 (ip), vehicle: saline
[3] = dose: 400.0 mg/kg/injection, schedule: Q04DX002 (ip), vehicle: saline
[4] = dose: 50.0 mg/kg/injection, schedule: Q01DX001 (ip), vehicle: saline
[5] = dose: 100.0 mg/kg/injection, schedule: Q01DX001 (ip), vehicle: saline
[6] = dose: 200.0 mg/kg/injection, schedule: Q01DX001 (ip), vehicle: saline
[7] = dose: 400.0 mg/kg/injection, schedule: Q01DX001 (ip), vehicle: saline
[8] = dose: 100.0 mg/kg/injection, schedule: Q04DX003 (ip), vehicle: Klucel (hydroxypropylcellulose) (HPC)
[9] = dose: 100.0 mg/kg/injection, schedule: Q04DX003 (ip), vehicle: saline with Tween-80

Cc1ccc(S(=O)(=O)OC23CCC(C)(CC2)C(=O)C3)cc1
T/C [1]: 91 % of control
T/C [2]: 102 % of control
T/C [3]: 91 % of control

Cc1[nH]c2ccccc2c1C(=O)Cc1ccc(Cl)cc1Cl
T/C [4]: 98 % of control
T/C [5]: 101 % of control
T/C [6]: 101 % of control
T/C [7]: 95 % of control

CCCCNC(=O)Nc1ccccc1OCC
T/C (dose: 100.0 mg/kg/injection, schedule: Q01DX009 (ip), vehicle: Klucel (hydroxypropylcellulose) (HPC)): 93 % of control
T/C [8]: 94 % of control
T/C (dose: 200.0 mg/kg/injection, schedule: Q01DX009 (ip), vehicle: Klucel (hydroxypropylcellulose) (HPC)): 92 % of control
T/C (dose: 200.0 mg/kg/injection, schedule: Q04DX003 (ip), vehicle: Klucel (hydroxypropylcellulose) (HPC)): 104 % of control
T/C (dose: 400.0 mg/kg/injection, schedule: Q01DX009 (ip), vehicle: Klucel (hydroxypropylcellulose) (HPC)): 97 % of control
T/C (dose: 400.0 mg/kg/injection, schedule: Q04DX003 (ip), vehicle: Klucel (hydroxypropylcellulose) (HPC)): 94 % of control

CC1OC(O[C@@H]2C=C3CC[C@@H]4[C@H](CC[C@]5(C)[C@@H](c6ccc(=O)oc6)CC[C@]45O)[C@@]3(C)CC2)C(O)C(OC2OC(CO)C(O)C(O)C2O)C1O (some centres not stated)
T/C (dose: 1.0 mg/kg/injection, schedule: Q01DX015 (sc), vehicle: steriod suspending solution): 95 % of control
T/C (dose: 2.0 mg/kg/injection, schedule: Q01DX015 (sc), vehicle: steriod suspending solution): 98 % of control
T/C (dose: 4.0 mg/kg/injection, schedule: Q01DX015 (sc), vehicle: steriod suspending solution): 96 % of control
T/C (dose: 5.0 mg/kg/injection, schedule: Q01DX001 (ip), vehicle: saline): 95 % of control
T/C (dose: 8.0 mg/kg/injection, schedule: Q01DX015 (sc), vehicle: steriod suspending solution): 97 % of control
T/C (dose: 10.0 mg/kg/injection, schedule: Q01DX001 (ip), vehicle: saline): 106 % of control
T/C (dose: 16.0 mg/kg/injection, schedule: Q01DX015 (sc), vehicle: steriod suspending solution): 103 % of control
T/C (dose: 20.0 mg/kg/injection, schedule: Q01DX001 (ip), vehicle: saline): 97 % of control
T/C (dose: 32.0 mg/kg/injection, schedule: Q01DX015 (sc), vehicle: steriod suspending solution): 100 % of control

Clc1ccc2nc(CBr)cnc2c1
T/C (dose: 3.13 mg/kg/injection, schedule: Q01DX009 (ip), vehicle: Klucel (hydroxypropylcellulose) (HPC)): 97 % of control
T/C (dose: 6.25 mg/kg/injection, schedule: Q01DX009 (ip), vehicle: Klucel (hydroxypropylcellulose) (HPC)): 95 % of control and 102 % of control
T/C (dose: 12.5 mg/kg/injection, schedule: Q01DX009 (ip), vehicle: Klucel (hydroxypropylcellulose) (HPC)): 100 % of control and 120 % of control and 87 % of control
T/C (dose: 25.0 mg/kg/injection, schedule: Q01DX009 (ip), vehicle: saline with Tween-80): 100 % of control
T/C (dose: 25.0 mg/kg/injection, schedule: Q04DX003 (ip), vehicle: Klucel (hydroxypropylcellulose) (HPC)): 95 % of control
T/C (dose: 50.0 mg/kg/injection, schedule: Q01DX009 (ip), vehicle: saline with Tween-80): 95 % of control
T/C (dose: 50.0 mg/kg/injection, schedule: Q04DX003 (ip), vehicle: Klucel (hydroxypropylcellulose) (HPC)): 96 % of control
T/C [8]: 93 % of control
T/C [9]: 90 % of control

CSC(N)=S
T/C (dose: 50.0 mg/kg/injection, schedule: Q01DX009 (ip), vehicle: saline): 96 % of control
T/C (dose: 50.0 mg/kg/injection, schedule: Q04DX003 (ip), vehicle: saline): 97 % of control
T/C (dose: 100.0 mg/kg/injection, schedule: Q01DX009 (ip), vehicle: saline): 94 % of control
T/C (dose: 100.0 mg/kg/injection, schedule: Q04DX003 (ip), vehicle: saline): 99 % of control
T/C (dose: 200.0 mg/kg/injection, schedule: Q04DX003 (ip), vehicle: saline): 99 % of control

COc1cc(C(=O)Nc2ccc(C3=NCCN3)cc2)cc(C(=O)Nc2ccc(C3=NCCN3)cc2)c1
T/C (dose: 30.0 mg/kg/injection, schedule: Q01DX Z (ip), vehicle: saline): 211 % of control
T/C (dose: 60.0 mg/kg/injection, schedule: Q01DX Z (ip), vehicle: saline): 275 % of control
T/C (dose: 60.0 mg/kg/injection, schedule: Q01DX Z (oral), vehicle: saline): 114 % of control
T/C (dose: 120.0 mg/kg/injection, schedule: Q01DX Z (ip), vehicle: saline): 151 % of control
T/C (dose: 120.0 mg/kg/injection, schedule: Q01DX Z (oral), vehicle: saline): 119 % of control
T/C (dose: 240.0 mg/kg/injection, schedule: Q01DX Z (oral), vehicle: saline): 101 % of control
T/C (dose: 480.0 mg/kg/injection, schedule: Q01DX Z (oral), vehicle: saline): 100 % of control

CC1(C)C2CCC1(C)C(OCCC#N)C2 (configuration not stated)
T/C [1]: 93 % of control
T/C [2]: 107 % of control
T/C [3]: 104 % of control

CC1(C#N)CC(C)(C)C(=O)N1 (configuration not stated)
T/C (dose: 75.0 mg/kg/injection, schedule: Q01DX001 (ip), vehicle: saline): 102 % of control
T/C (dose: 150.0 mg/kg/injection, schedule: Q01DX001 (ip), vehicle: saline): 102 % of control
T/C (dose: 300.0 mg/kg/injection, schedule: Q01DX001 (ip), vehicle: saline): 108 % of control

O=C(CCl)Nc1cccc(S(=O)(=O)F)c1
T/C (dose: 12.5 mg/kg/injection, schedule: Q01DX009 (ip), vehicle: carboxymethylcellulose (CMC)): 93 % of control
T/C (dose: 25.0 mg/kg/injection, schedule: Q01DX009 (ip), vehicle: carboxymethylcellulose (CMC)): 88 % of control
T/C (dose: 50.0 mg/kg/injection, schedule: Q01DX009 (ip), vehicle: carboxymethylcellulose (CMC)): 87 % of control
T/C (dose: 100.0 mg/kg/injection, schedule: Q04DX003 (ip), vehicle: carboxymethylcellulose (CMC)): 103 % of control

CCCCC(=O)N/N=C/c1ccc(Cl)cc1Cl
T/C [5]: 91 % of control

N#Cc1c(/N=C/c2ccccc2Cl)sc2c1CCC2
T/C (dose: 100.0 mg/kg/injection, schedule: Q04DX002 (ip), vehicle: saline with Tween-80): 91 % of control
T/C (dose: 200.0 mg/kg/injection, schedule: Q04DX002 (ip), vehicle: saline with Tween-80): 105 % of control
T/C (dose: 400.0 mg/kg/injection, schedule: Q04DX002 (ip), vehicle: saline with Tween-80): 91 % of control

CC(=O)Nc1ccc(Cc2cc(=O)[nH]c(=O)[nH]2)cc1
T/C (dose: 9.38 mg/kg/injection, schedule: Q01DX001 (ip), vehicle: saline with Tween-80): 106 % of control
T/C (dose: 18.75 mg/kg/injection, schedule: Q01DX001 (ip), vehicle: saline with Tween-80): 96 % of control
T/C (dose: 37.5 mg/kg/injection, schedule: Q01DX001 (ip), vehicle: saline with Tween-80): 104 % of control

CC(=O)N(c1ccccc1)C(C(=O)c1ccccc1)c1ccccc1 (configuration not stated)
T/C [4]: 98 % of control
T/C [5]: 102 % of control
T/C [6]: 108 % of control
T/C [7]: 98 % of control

CCOc1cc(C#N)c(OCC)cc1N
T/C [5]: 103 % of control
T/C [6]: 101 % of control

O=C1CC(N2C(=O)C3C4CCC(CC4)C3C2=O)C(=O)N1 (configuration not stated)
T/C [9]: 96 % of control
T/C (dose: 200.0 mg/kg/injection, schedule: Q04DX003 (ip), vehicle: saline with Tween-80): 100 % of control
T/C (dose: 400.0 mg/kg/injection, schedule: Q04DX003 (ip), vehicle: saline with Tween-80): 112 % of control

C#CCOCC(O)C[As](=O)(O)c1ccc(Cl)cc1 (configuration not stated)
T/C (dose: 6.25 mg/kg/injection, schedule: Q01DX001 (ip), vehicle: saline with Tween-80): 101 % of control
T/C (dose: 12.5 mg/kg/injection, schedule: Q01DX001 (ip), vehicle: saline with Tween-80): 106 % of control

N=C(N)c1ccc(OCCCCOc2ccc(NC(=O)c3cccc(S(=O)(=O)F)c3)cc2)cc1
T/C (dose: 50.0 mg/kg/injection, schedule: Q01DX001 (ip), vehicle: saline with Tween-80): 98 % of control
T/C (dose: 100.0 mg/kg/injection, schedule: Q01DX001 (ip), vehicle: saline with Tween-80): 95 % of control
T/C (dose: 200.0 mg/kg/injection, schedule: Q01DX001 (ip), vehicle: saline with Tween-80): 97 % of control

CC(=O)OC1CCC2(C)C(=CCC3C2CCC2(C)c4c(c(-c5ccccc5)nn4-c4ccccc4)CC32)C1 (configuration not stated)
T/C (dose: 100.0 mg/kg/injection, schedule: Q04DX002 (ip), vehicle: Klucel (hydroxypropylcellulose) (HPC)): 98 % of control
T/C (dose: 200.0 mg/kg/injection, schedule: Q04DX002 (ip), vehicle: Klucel (hydroxypropylcellulose) (HPC)): 90 % of control
T/C (dose: 400.0 mg/kg/injection, schedule: Q04DX002 (ip), vehicle: Klucel (hydroxypropylcellulose) (HPC)): 95 % of control
